Source: patent US6660774B2, “Use of (+)-tramadol, O-demethyltramadol or (+)-O-demethyl-tramadol, O-desmethyl-N-mono-desmethyl-tramadol or (+)- O-desmethyl-N-mono-desmethyltramadol” (Gruenethal GmbH, priority 1999, dated 2003)

Test system: virgin, female Sprague-Dawley rats (bladder function)
Assay: Cystometric testing on conscious, virgin rats
Type: in vivo, rat
[1] = 1.0 mg/kg i.v., Diff.: change relative to the initial value
[2] = 1.0 mg/kg i.v., h: after administration, at maximum action
[3] = 1.0 mg/kg i.v., v: before administration (initial value)
[4] = 5.0 mg/kg i.v., Diff.: change relative to the initial value
[5] = 5.0 mg/kg i.v., h: after administration, at maximum action
[6] = 5.0 mg/kg i.v., v: before administration (initial value)
[7] = 10.0 mg/kg i.v., Diff.: change relative to the initial value
[8] = 10.0 mg/kg i.v., h: after administration, at maximum action
[9] = 10.0 mg/kg i.v., v: before administration (initial value)
[10] = 10.0 μg/kg i.t., Diff.: change relative to the initial value
[11] = 10.0 μg/kg i.t., h: after administration, at maximum action
[12] = 10.0 μg/kg i.t., v: before administration (initial value)

## COc1cccc([C@@]2(O)CCCC[C@@H]2CN(C)C)c1 (racemic) [Tramadol, (1RS,2RS)-2-dimethylaminomethyl-1-(3-methoxyphenyl)cyclohexanol]
[1]
  Basal pressure: Diff.: +26%
  Bladder capacity: Diff.: −2%
  Micturition pressure: Diff.: −10%
  Micturition volume: Diff.: +27%
  Residual volume: Diff.: −89%
  Threshold pressure: Diff.: +50%
[2]
  Basal pressure: h: 11.34 ± 1.54 cm H2O
  Bladder capacity: h: 0.82 ± 0.09 ml
  Micturition pressure: h: 85 ± 6 cm H2O
  Micturition volume: h: 0.95 ± 0.08 ml
  Residual volume: h: 0.01 ± 0.005 ml
  Threshold pressure: h: 21.03 ± 3.10 cm H2O
[3]
  Basal pressure: v: 9.02 ± 1.12 cm H2O
  Bladder capacity: v: 0.84 ± 0.11 ml
  Micturition pressure: v: 94 ± 7 cm H2O
  Micturition volume: v: 0.75 ± 0.09 ml
  Residual volume: v: 0.09 ± 0.02 ml
  Threshold pressure: v: 14.0 ± 2.04 cm H2O
5 mg/kg
  action on threshold pressure compared with 10 mg/kg of racemic tramadol: doubled
[4]
  Basal pressure: Diff.: +1%
  Bladder capacity: Diff.: +6%
  Inter-contraction interval: Diff.: −11%
  Micturition pressure: Diff.: −27%
  Micturition volume: Diff.: +42%
  Residual volume: Diff.: −73%
  Threshold pressure: Diff.: +37%
[5]
  Basal pressure: h: 9.30 ± 2.10 cm H2O
  Bladder capacity: h: 0.92 ± 0.08 ml
  Micturition pressure: h: 75 ± 10 cm H2O
  Micturition volume: h: 1.08 ± 0.09 ml
  Residual volume: h: 0.03 ± 0.01 ml
  Threshold pressure: h: 17.05 ± 2.33 cm H2O
[6]
  Basal pressure: v: 9.21 ± 1.35 cm H2O
  Bladder capacity: v: 0.87 ± 0.07 ml
  Micturition pressure: v: 103 ± 10 cm H2O
  Micturition volume: v: 0.76 ± 0.06 ml
  Residual volume: v: 0.11 ± 0.02 ml
  Threshold pressure: v: 12.45 ± 1.411 cm H2O
10 mg/kg i.v.
  threshold pressure (in words): distinct rise
[7]
  Basal pressure: Diff.: +40%
  Bladder capacity: Diff.: −18%
  Inter-contraction interval: Diff.: −40%
  Micturition pressure: Diff.: −11%
  Micturition volume: Diff.: +33%
  Residual volume: Diff.: −50%
  Threshold pressure: Diff.: +70%
[8]
  Basal pressure: h: 14.31 ± 1.89 cm H2O
  Bladder capacity: h: 0.78 ± 0.08 ml
  Micturition pressure: h: 66 ± 5 cm H2O
  Micturition volume: h: 1.13 ± 0.08 ml
  Residual volume: h: 0.05 ± 0.005 ml
  Threshold pressure: h: 25.50 ± 2.40 cm H2O
[9]
  Basal pressure: v: 10.21 ± 1.03 cm H2O
  Bladder capacity: v: 0.95 ± 0.06 ml
  Micturition pressure: v: 74 ± 5 cm H2O
  Micturition volume: v: 0.85 ± 0.05 ml
  Residual volume: v: 0.10 ± 0.02 ml
  Threshold pressure: v: 15.01 ± 1.32 cm H2O
Most effective dose (10 mg/kg)
  ICI (in words): distinct reduction

## CNCC1CCCCC1(O)c1cccc(O)c1 (single isomer, unassigned; (+)) [(+)-M5, (+)-O-desmethyl-N-mono-desmethyltramadol]
[10]
  Basal pressure: Diff.: −9%
  Bladder capacity: Diff.: +61%
  Inter-contraction interval: Diff.: +38%
  Micturition pressure: Diff.: −46%
  Micturition volume: Diff.: +36%
  Residual volume: Diff.: +162%
  Threshold pressure: Diff.: +46%
[11]
  Basal pressure: h: 4.25 ± 0.33 cm H2O
  Bladder capacity: h: 1.06 ± 0.06 ml
  Inter-contraction interval: h: 5.22 ± 0.27 min
  Micturition pressure: h: 43 ± 6 cm H2O
  Micturition volume: h: 0.72 ± 0.04 ml
  Residual volume: h: 0.34 ± 0.04 ml
  Threshold pressure: h: 10.25 ± 1.01 cm H2O
[12]
  Basal pressure: v: 4.68 ± 0.74 cm H2O
  Bladder capacity: v: 0.66 ± 0.05 ml
  Inter-contraction interval: v: 3.78 ± 0.35 min
  Micturition pressure: v: 80 ± 9 cm H2O
  Micturition volume: v: 0.53 ± 0.06 ml
  Residual volume: v: 0.13 ± 0.01 ml
  Threshold pressure: v: 7.0 ± 0.93 cm H2O
10 mg/kg i.v.
  threshold pressure (in words): distinct rise
10.0 mg/kg i.v.
  interval between micturition (in words): not shortened
[7]
  Basal pressure: Diff.: +4%
  Bladder capacity: Diff.: −18%
  Inter-contraction interval: Diff.: −12%
  Micturition pressure: Diff.: −23%
  Micturition volume: Diff.: +9%
  Residual volume: Diff.: −88%
  Threshold pressure: Diff.: +69%
[8]
  Basal pressure: h: 3.95 ± 0.35 cm H2O
  Bladder capacity: h: 0.72 ± 0.08 ml
  Inter-contraction interval: h: 4.30 ± 0.47 min
  Micturition pressure: h: 41 ± 3 cm H2O
  Micturition volume: h: 0.86 ± 0.10 ml
  Residual volume: h: 0.01 ± 0.002 ml
  Threshold pressure: h: 12.08 ± 1.47 cm H2O
[9]
  Basal pressure: v: 3.78 ± 0.26 cm H2O
  Bladder capacity: v: 0.88 ± 0.09 ml
  Inter-contraction interval: v: 4.92 ± 0.53 min
  Micturition pressure: v: 53 ± 4 cm H2O
  Micturition volume: v: 0.79 ± 0.09 ml
  Residual volume: v: 0.08 ± 0.01 ml
  Threshold pressure: v: 7.13 ± 0.47 cm H2O
intrathecally
  bladder capacity (in words): distinct increases
  interval between micturition (in words): distinct increases
  threshold pressure (in words): increase

## COc1cccc(C2(O)CCCCC2CN(C)C)c1 (single isomer, unassigned; (-)) [(−)-Tramadol, (−)-tramadol, reference compound]
[4]
  Basal pressure: Diff.: +2%
  Bladder capacity: Diff.: −8%
  Micturition pressure: Diff.: −15%
  Micturition volume: Diff.: −6%
  Residual volume: Diff.: −17%
  Threshold pressure: Diff.: −3%
[5]
  Basal pressure: h: 4.20 ± 0.30 cm H2O
  Bladder capacity: h: 1.10 ± 0.09 ml
  Micturition pressure: h: 59 ± 3 cm H2O
  Micturition volume: h: 1.01 ± 0.09 ml
  Residual volume: h: 0.10 ± 0.02 ml
  Threshold pressure: h: 7.10 ± 0.44 cm H2O
[6]
  Basal pressure: v: 4.12 ± 0.40 cm H2O
  Bladder capacity: v: 1.19 ± 0.13 ml
  Micturition pressure: v: 69 ± 4 cm H2O
  Micturition volume: v: 1.07 ± 0.13 ml
  Residual volume: v: 0.12 ± 0.01 ml
  Threshold pressure: v: 7.32 ± 2.21 cm H2O
